Assay: refractive index (Na D-line) (dimensionless); xn = mol fraction of the nth substance listed
Settings: 101 kPa, Liquid

CCCCCCn1cc[n+](C)c1.F[P-](F)(F)(F)(F)F [1-hexyl-3-methylimidazolium hexafluorophosphate] + CCCCOC(C)=O
refractive index, Standard Abbe refractometry
Settings | 293.15 K | 298.15 K | 303.15 K | 308.15 K | 313.15 K | 318.15 K | 323.15 K
x1 = 0.0956 | 1.40012 | 1.39835 | 1.39654 | 1.39469 | 1.39293 | 1.39102 | 1.38925
x1 = 0.1919 | 1.40555 | 1.40397 | 1.40209 | 1.40028 | 1.39856 | 1.39677 | 1.39495
x1 = 0.273 | 1.40899 | 1.40746 | 1.40564 | 1.40392 | 1.40223 | 1.40049 | 1.39879
x1 = 0.3698 | 1.41222 | 1.41064 | 1.40899 | 1.40735 | 1.40568 | 1.40401 | 1.40239
x1 = 0.4639 | 1.41432 | 1.41299 | 1.41138 | 1.40987 | 1.40837 | 1.40682 | 1.40529
x1 = 0.5701 | 1.41616 | 1.41482 | 1.41349 | 1.41215 | 1.41074 | 1.40945 | 1.40808
x1 = 0.6787 | 1.41768 | 1.41633 | 1.41519 | 1.41385 | 1.41265 | 1.41139 | 1.41024
x1 = 0.7746 | 1.41841 | 1.41727 | 1.41623 | 1.41512 | 1.41392 | 1.41269 | 1.41151
x1 = 0.8707 | 1.41937 | 1.41819 | 1.41713 | 1.41606 | 1.41477 | 1.41373 | 1.41268
x1 = 0.9354 | 1.41972 | 1.41876 | 1.41773 | 1.41651 | 1.41522 | 1.41386 | 1.41261
x1 = 1 | 1.42064 | 1.41935 | 1.41806 | 1.41676 | 1.41547 | 1.41417 | 1.41288

CCCCCCn1cc[n+](C)c1.F[P-](F)(F)(F)(F)F [1-hexyl-3-methylimidazolium hexafluorophosphate] + CCOC(C)=O
refractive index
Settings | 293.15 K | 298.15 K | 303.15 K | 308.15 K | 313.15 K | 318.15 K | 323.15 K
x1 = 0.09053 | 1.38737 | 1.38598 | 1.38515 | 1.38415 | 1.38344 | 1.38227 | 1.38202
x1 = 0.1751 | 1.39825 | 1.39706 | 1.39611 | 1.39519 | 1.39414 | 1.39389 | 1.39323
x1 = 0.2748 | 1.40432 | 1.40351 | 1.402 | 1.40105 | 1.40023 | 1.39983 | 1.3989
x1 = 0.3638 | 1.40809 | 1.40694 | 1.40594 | 1.40487 | 1.40397 | 1.40319 | 1.40308
x1 = 0.4747 | 1.41069 | 1.40989 | 1.40899 | 1.40784 | 1.40699 | 1.40607 | 1.40548
x1 = 0.5959 | 1.41247 | 1.41194 | 1.41159 | 1.41107 | 1.40998 | 1.4091 | 1.4082
x1 = 0.6988 | 1.41456 | 1.41432 | 1.41357 | 1.41273 | 1.41182 | 1.41087 | 1.40995
x1 = 0.7782 | 1.41641 | 1.41609 | 1.41526 | 1.41451 | 1.41389 | 1.41215 | 1.41181
x1 = 0.8784 | 1.41817 | 1.41813 | 1.41735 | 1.41622 | 1.41498 | 1.41315 | 1.41252
x1 = 0.9562 | 1.42009 | 1.41886 | 1.41756 | 1.41629 | 1.41507 | 1.41377 | 1.41258
x1 = 1 | 1.42064 | 1.41935 | 1.41806 | 1.41676 | 1.41547 | 1.41417 | 1.41288

CCCCCCCC[n+]1ccn(C)c1.F[P-](F)(F)(F)(F)F [1-octyl-3-methylimidazolium hexafluorophosphate] + CCCCOC(C)=O
refractive index
Settings | x1 = 0.1078 | x1 = 0.2016 | x1 = 0.3056 | x1 = 0.3855 | x1 = 0.4815 | x1 = 0.5918 | x1 = 0.6857 | x1 = 0.7784 | x1 = 0.8946 | x1 = 1
293.15 K | 1.40113 | 1.40658 | 1.41215 | 1.41536 | 1.41829 | 1.42036 | 1.42188 | 1.42339 | 1.42502 | 1.42649
298.15 K | 1.39916 | 1.40486 | 1.41053 | 1.41402 | 1.41692 | 1.41924 | 1.42067 | 1.42219 | 1.42373 | 1.42512
303.15 K | 1.39682 | 1.40307 | 1.40886 | 1.41241 | 1.41546 | 1.41801 | 1.41931 | 1.42073 | 1.42217 | 1.42376
308.15 K | 1.39502 | 1.40132 | 1.40721 | 1.41099 | 1.41402 | 1.41668 | 1.41801 | 1.41955 | 1.42089 | 1.4224
313.15 K | 1.39308 | 1.39963 | 1.40556 | 1.40944 | 1.41256 | 1.41529 | 1.41687 | 1.41835 | 1.41966 | 1.42103
318.15 K | 1.39114 | 1.39793 | 1.40399 | 1.40796 | 1.41132 | 1.41404 | 1.41575 | 1.41726 | 1.41848 | 1.41967
323.15 K | 1.38914 | 1.39622 | 1.40245 | 1.40652 | 1.41001 | 1.41272 | 1.41456 | 1.41606 | 1.41731 | 1.41831

CCCCCCCC[n+]1ccn(C)c1.F[P-](F)(F)(F)(F)F [1-octyl-3-methylimidazolium hexafluorophosphate] + CCOC(C)=O
refractive index
Settings | x1 = 0.1056 | x1 = 0.2064 | x1 = 0.308 | x1 = 0.4094 | x1 = 0.4991 | x1 = 0.5916 | x1 = 0.694 | x1 = 0.8121 | x1 = 0.8895 | x1 = 1
293.15 K | 1.38873 | 1.40004 | 1.40816 | 1.41301 | 1.41629 | 1.41842 | 1.4208 | 1.42285 | 1.42447 | 1.42649
298.15 K | 1.38754 | 1.39899 | 1.40705 | 1.41196 | 1.41523 | 1.41771 | 1.41971 | 1.42189 | 1.42354 | 1.42512
303.15 K | 1.38545 | 1.39759 | 1.40552 | 1.41088 | 1.41385 | 1.41655 | 1.41878 | 1.42063 | 1.42188 | 1.42376
308.15 K | 1.38383 | 1.39634 | 1.40439 | 1.40952 | 1.41311 | 1.41557 | 1.41792 | 1.42016 | 1.42072 | 1.4224
313.15 K | 1.38267 | 1.39498 | 1.40318 | 1.40842 | 1.41186 | 1.41447 | 1.41699 | 1.41906 | 1.41956 | 1.42103
318.15 K | 1.38145 | 1.39381 | 1.40208 | 1.40767 | 1.41108 | 1.41348 | 1.41612 | 1.41805 | 1.41852 | 1.41967
323.15 K | 1.38027 | 1.39276 | 1.40106 | 1.40658 | 1.41002 | 1.41266 | 1.41504 | 1.41746 | 1.41744 | 1.41831

— the NIST ThermoML archive (doi:10.1016/j.jct.2014.01.012)
